These results are taken from patent US20070161665A1, “Cancer treatment method” (priority 2003, published 2007).

Test [1] deals with AKT3 (Homo sapiens, UniProt Q9Y243). The test is described as follows: Inhibition of AKT isoforms, enzyme IC50. The test is classed as biochemical.
Test [2] concerns the target AKT2 (Homo sapiens, UniProt P31751). The test is described as follows: Inhibition of AKT isoforms, enzyme IC50. The format is biochemical.
The target of test [3] is AKT1 (Homo sapiens, UniProt P31749). Nature of the test: Inhibition of AKT isoforms, enzyme IC50. The test is classed as biochemical.
AKT1, sequence (P31749 whole entry, species assumed, canonical isoform): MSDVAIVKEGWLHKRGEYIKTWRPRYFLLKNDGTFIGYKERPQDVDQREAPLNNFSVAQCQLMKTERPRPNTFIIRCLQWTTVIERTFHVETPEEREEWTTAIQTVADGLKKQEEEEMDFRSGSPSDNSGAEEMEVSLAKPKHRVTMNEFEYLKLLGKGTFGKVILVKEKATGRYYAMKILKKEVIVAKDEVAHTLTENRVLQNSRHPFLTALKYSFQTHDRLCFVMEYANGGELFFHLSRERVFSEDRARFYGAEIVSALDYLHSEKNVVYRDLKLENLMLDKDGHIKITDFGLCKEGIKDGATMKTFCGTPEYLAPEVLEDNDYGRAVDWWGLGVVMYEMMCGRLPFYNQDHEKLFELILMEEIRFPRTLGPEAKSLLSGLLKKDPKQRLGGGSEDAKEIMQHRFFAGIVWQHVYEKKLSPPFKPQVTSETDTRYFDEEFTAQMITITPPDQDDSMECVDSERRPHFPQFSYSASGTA
The subject of test [4] is HN5 cells. The test is described as follows: Roche Cell Death ELISAPlus apoptosis assay in HN5 cells (median effect and sensitization ratio analysis). The test is classed as cell-based. The procedure: HN5 cells are LICR-LON-HN5 head and neck carcinoma cells, which were a gift from the Institute of Cancer Research, Surrey, U.K.
(§1) Cell lines were grown in RPMI-1640 supplemented with 25 mM HEPES, 10 mM glutamine and 10% fetal bovine serum and maintained at 37° C. and 5% CO2 in a humid incubator. Assays were performed in 96 well microtiter plates with optimum seeding densities for each cell line.
(§2) Apoptosis was measured using the Roche Cell Death ELISA^Plus kit (catalog 1 774 425) which detects fragmented nucleosomal DNA that is generated during apoptosis.
Synergistic interaction between compounds was analyzed by the median effect method described by Chou and Talalay (Adv. Enzyme Regul. 22: 27-55, 1984). Briefly, if the two compounds fit the mutually exclusive model of Chou, one calculates the combination index (CI) using the formula CI=((D)1/(Dx)1)+((D)2/(Dx)2) (1) where (D)1 is the concentration of drug 1 in the combination that gives “x” percent apoptosis, (D)2 is the same for drug 2, and (Dx)1 and (Dx)2 are the concentrations of drug 1 or 2 that give “x” percent apoptosis when used alone. (D)1 and (D)2 are known from the composition of the combination and (Dx)1 and (Dx)2 can be calculated from the equation Dx=Dm*[fa/(1−fa)]^1/m (2) where Dm is the concentration of drug giving 50% effect, fa is the fraction affected, and m is the slope from the median effect plot of log (fa/fu) where fu is the fraction unaffected versus log (D). A CI less than 1 indicates synergy, equal to 1 indicates additivity and greater than 1 antagonism.
(§3) Sensitization is measured as the ratio between observed and expected apoptosis or caspase activation from a combination of AKT kinase inhibitor and EGFR/erb inhibitor. The expected level of activity (Ae) is calculated by Ae=1−((1−A1)*(1−A2)) (3) where A1 and A2 are the activities of drugs 1 and 2 alone at the concentration used in the combination (Harvey, R. J., J. Theor. Biol. 74: 411-437, 1978).

For test [5], the system named is T47D cells. Nature of the test: Roche Cell Death ELISAPlus apoptosis assay in T47D cells (sensitization ratio). The format is cell-based, human. The conditions noted are these: for Apoptosis (FIG. 6): 10 μM GW572016 or 100 μM LY294002 separately. The procedure:
T47D cells are human breast ductal carcinoma cells originally obtained from the American Type Culture Collection.
as §1, §2
The expected level of activity (Ae) is calculated by Ae=1−((1−A1)*(1−A2)) (3) where A1 and A2 are the activities of drugs 1 and 2 alone at the concentration used in the combination (Harvey, R. J., J. Theor. Biol. 74: 411-437, 1978).
Apoptosis was measured using the Roche Cell Death ELISA^Plus kit, and the relative percentage of apoptosis was determined for each combination.

Test [6] deals with MDA-MB468 cells. Nature of the test: Roche Cell Death ELISAPlus apoptosis assay in MDA-MB468 cells (sensitization ratio). The test is classed as cell-based, human. As for the experimental part:
MDA-MB468 cells are human breast adenocarcinoma cells originally obtained from the American Type Culture Collection.
as §1, §2, §3
MDA-MB468 cells were incubated with varied concentrations of GW583340 for 24 h followed by an additional 4 h incubation with varied concentrations of LY294002. Apoptosis was measured using the Roche Cell Death ELISA^Plus kit, and the relative percentage of apoptosis was determined for each combination. When 1, 2, or 5 μM GW583340 were combined with 100 μM LY294002, SR values 3.4, 4.2 and 5.0, respectively, indicated significant synergism. At lower concentrations of LY294002, lesser degrees of synergism were observed.

The mark [7] stands for this setting: GW572016 2 μM 24 h, then LY294002 0 μM 4 h.
The mark [8] stands for this setting: GW572016 5 μM 24 h, then LY294002 0 μM 4 h.
Setting [9] is: GW572016 10 μM 24 h, then LY294002 0 μM 4 h.
Setting [10] is: HN5, 24 h; concentration of the named drug within the 1:2 GW572016:LY294002 combo at Dm; read-out: Dm, drug in combo.
Where [11] appears, read: HN5, 24 h; concentration of the named drug within the 1:10 GW572016:LY294002 combo at Dm; read-out: Dm, drug in combo.
Setting [12] is: GW583340 1 μM 24 h, then LY294002 0 μM 4 h.
The mark [13] stands for this setting: GW583340 2 μM 24 h, then LY294002 0 μM 4 h.
[14] abbreviates: GW583340 5 μM 24 h, then LY294002 0 μM 4 h.
The mark [15] stands for this setting: HN5, 24 h; concentration of the named drug within the 1:2 GW589522:LY294002 combo at Dm; read-out: Dm, drug in combo.
Setting [16] is: HN5, 24 h; concentration of the named drug within the 1:10 GW589522:LY294002 combo at Dm; read-out: Dm, drug in combo.
Setting [17] is: Homo sapiens, HN5, 24 h; drug alone (Table 3); concentration giving 50% effect; read-out: Dm.
[18] abbreviates: GW583340 0 μM 24 h, then LY294002 4 μM 4 h.
Where [19] appears, read: GW583340 0 μM 24 h, then LY294002 10 μM 4 h.
Where [20] appears, read: GW583340 0 μM 24 h, then LY294002 20 μM 4 h.
[21] abbreviates: GW583340 0 μM 24 h, then LY294002 50 μM 4 h.
The mark [22] stands for this setting: GW583340 0 μM 24 h, then LY294002 100 μM 4 h.
The mark [23] stands for this setting: GW572016 0 μM 24 h, then LY294002 20 μM 4 h.
Setting [24] is: GW572016 0 μM 24 h, then LY294002 50 μM 4 h.
The mark [25] stands for this setting: GW572016 0 μM 24 h, then LY294002 100 μM 4 h.

Counter-ions that a name gives are not always drawn. Like-named read-outs stand apart in the source and are kept apart here.

AKT2, sequence (P31751 whole entry, species assumed, canonical isoform): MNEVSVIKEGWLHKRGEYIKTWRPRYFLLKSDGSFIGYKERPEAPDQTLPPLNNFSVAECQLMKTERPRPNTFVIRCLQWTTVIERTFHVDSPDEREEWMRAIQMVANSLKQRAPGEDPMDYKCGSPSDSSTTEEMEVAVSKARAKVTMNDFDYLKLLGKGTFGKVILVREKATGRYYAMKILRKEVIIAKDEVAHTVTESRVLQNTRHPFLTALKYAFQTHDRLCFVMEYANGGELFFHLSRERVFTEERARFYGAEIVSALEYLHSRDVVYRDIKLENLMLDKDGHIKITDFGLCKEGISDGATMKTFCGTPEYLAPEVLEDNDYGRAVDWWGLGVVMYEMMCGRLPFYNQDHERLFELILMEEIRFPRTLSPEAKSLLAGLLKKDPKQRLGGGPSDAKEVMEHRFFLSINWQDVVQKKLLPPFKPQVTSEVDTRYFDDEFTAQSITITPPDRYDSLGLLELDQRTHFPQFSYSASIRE
AKT3, sequence (Q9Y243 whole entry, species assumed, canonical isoform): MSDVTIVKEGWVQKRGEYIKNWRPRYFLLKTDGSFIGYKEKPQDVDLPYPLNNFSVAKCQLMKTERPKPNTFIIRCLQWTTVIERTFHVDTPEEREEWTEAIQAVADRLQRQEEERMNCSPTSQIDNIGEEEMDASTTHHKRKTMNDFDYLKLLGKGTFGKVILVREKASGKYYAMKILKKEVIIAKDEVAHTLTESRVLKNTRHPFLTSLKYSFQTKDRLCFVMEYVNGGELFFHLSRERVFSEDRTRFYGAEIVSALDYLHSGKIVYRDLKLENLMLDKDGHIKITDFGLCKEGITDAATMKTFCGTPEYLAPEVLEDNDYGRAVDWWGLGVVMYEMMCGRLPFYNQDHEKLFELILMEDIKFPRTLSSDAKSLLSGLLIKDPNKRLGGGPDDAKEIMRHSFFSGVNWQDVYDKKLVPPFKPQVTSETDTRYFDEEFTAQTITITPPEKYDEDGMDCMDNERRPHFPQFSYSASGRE

With `CCn1c(-c2nonc2N)nc2cncc(OC3CCNCC3)c21` [Ex 9 (tri-HCl salt), 4-[1-Ethyl-7-(piperidin-4-yloxy)-1H-imidazo[4,5-c]pyridin-2-yl]-furazan-3-ylamine], the IC50 in test [1] is 0.19 µM; in test [2], 0.27 µM; in test [3] it was 0.05 µM. Moreover, the “Sensitization Ratio in HN5 with 5 μM GW589522A” value (“Sensitization Ratio in HN5” below) in test [4] (HN5; 5 μM GW589522A 24 h, then compound 8 μM 4 h) is 10 @ 8.
Turning to `CCn1c(-c2nonc2N)nc2cncc(OC3CCNCC3)c21` [Ex 9, 4-[1-Ethyl-7-(piperidin-4-yloxy)-1H-imidazo[4,5-c]pyridin-2-yl]-furazan-3-ylamine], the IC50 was determined as 0.41 µM in test [1], 0.39 µM in test [2] and 0.13 µM in test [3]. The “Sensitization Ratio in HN5” value in test [4] (HN5; 5 μM GW589522A 24 h, then compound 4 μM 4 h) is listed as 2.6 @ 4. Also, the “Net Apoptosis” value in test [4] (HN5; GW572016 0 μM 24 h, then Ex 9 2 μM 4 h) stood at 2.7%; in test [4] (HN5; GW572016 0 μM 24 h, then Ex 9 4 μM 4 h) it was 1.8%; in test [4] (HN5; GW572016 0 μM 24 h, then Ex 9 8 μM 4 h) it was 3.9%; in test [4] (HN5; GW572016 0 μM 24 h, then Ex 9 16 μM 4 h), 3.7%; in test [4] (HN5; GW572016 0 μM 24 h, then Ex 9 20 μM 4 h) it was 4.7%; in test [4] (HN5; GW589522 0 μM 24 h, then Ex 9 0.5 μM 4 h), 6.3%. For the same compound, the “Net Apoptosis” value in test [4] (HN5; GW589522 0 μM 24 h, then Ex 9 2 μM 4 h) was 8.7%; in test [4] (HN5; GW589522 0 μM 24 h, then Ex 9 8 μM 4 h), 17.9%.
As to `CCn1c(-c2nonc2N)nc2c(-c3ccccc3)ncc(OCC3CCCNC3)c21.O=C(O)C(F)(F)F` (stereo not drawn) [Ex 10, 4-{1-ethyl-4-phenyl-7-[(3-piperidinylmethyl)oxy]-1H-imidazo[4,5-c]pyridin-2-yl}-1,2,5-oxadiazol-3-amine trifluoroacetate], the IC50 came out at 0.01 µM in test [1], 0.03 µM in test [2] and 0.01 µM in test [3]. Also, the “Sensitization Ratio in HN5” value in test [4] (HN5; 5 μM GW589522A 24 h, then compound 10 μM 4 h) is listed as 3.7 @ 10.
On to `CS(=O)(=O)CCNCc1ccc(-c2ccc3ncnc(Nc4ccc(OCc5cccc(F)c5)c(Cl)c4)c3c2)o1.Cc1ccc(S(=O)(=O)O)cc1.Cc1ccc(S(=O)(=O)O)cc1.O` [GW572016, N-{3-Chloro-4-[(3-fluorobenzyl)oxy]phenyl}-6-[5-({[2-(methanesulphonyl)ethyl]amino}methyl)-2-furyl]-4-quinazolinamine ditosylate monohydrate], for which, in test [5], the “Apoptosis (FIG. 6)” value is reported as “little effect”. Further, the “Net Apoptosis” value in test [5] (setting [7]) was 0.4%; in test [5] (setting [8]), 0.3%; in test [5] (setting [9]), 2.2%; in test [4] (HN5; GW572016 2 μM 24 h, then Ex 9 0 μM 4 h) it was −1.0%; in test [4] (HN5; GW572016 4 μM 24 h, then Ex 9 0 μM 4 h) it was 2.5%; in test [4] (HN5; GW572016 10 μM 24 h, then Ex 9 0 μM 4 h) it was 5.1%. Moreover, the “Net avg A405 nm” value in test [5] (setting [7]) came to 0.013; in test [5] (setting [8]) it was 0.013; in test [5] (setting [9]), 0.042. In addition, the EC50 in test [4] (setting [10]) is 7.2 µM; in test [4] (setting [11]) it was 5.3 µM; in test [4] (Homo sapiens; HN5, 24 h; drug alone (Table 1); concentration giving 50% effect; read-out: Dm), 10.3 µM.
Consider `CS(=O)(=O)CCNCc1nc(-c2ccc3ncnc(Nc4ccc(OCc5cccc(F)c5)c(Cl)c4)c3c2)cs1` [GW583340, (4-(3-Fluoro-benzyloxy)-3-chlorophenyl)-(6-(2-((2-methanesulphonyl-ethylamino)-methyl)-thiazol-4-yl)quinazolin-4-yl)-amine], for which the “Net Apoptosis” value is on record as 4.8% in test [6] (setting [12]), 4.2% in test [6] (setting [13]) and 7.4% in test [6] (setting [14]). For the same compound, the “Net avg A405 nm” value turned out to be 0.294 in test [6] (setting [12]), 0.286 in test [6] (setting [13]) and 0.325 in test [6] (setting [14]).
Turning to `CS(=O)(=O)CCNCc1ccc(-c2ccc3ncnc(Nc4ccc(OCc5cccc(F)c5)c(Br)c4)c3c2)o1` [GW589522, (4-(3-Fluoro-benzyloxy)-3-bromophenyl)-(6-(5-((2-methanesulphonyl-ethylamino)-methyl)-furan-2-yl)quinazolin-4-yl)-amine], the EC50 in test [4] (setting [15]) amounted to 8.6 µM; in test [4] (setting [16]) it was 4.4 µM; in test [4] (setting [17]), 15.9 µM. The “Net Apoptosis” value is reported as −1.0% in test [4] (HN5; GW589522 1.56 μM 24 h, then Ex 9 0 μM 4 h); 2.5% in test [4] (HN5; GW589522 3.12 μM 24 h, then Ex 9 0 μM 4 h); 2.5% in test [4] (HN5; GW589522 6.25 μM 24 h, then Ex 9 0 μM 4 h); 5.1% in test [4] (HN5; GW589522 12.5 μM 24 h, then Ex 9 0 μM 4 h).
Regarding `O=c1cc(N2CCOCC2)oc2c(-c3ccccc3)cccc12` [LY294002, 2-(4-morpholinyl)-8-phenyl-4H-1-benzopyran-4-one, reference compound], the “Net Apoptosis” value is 4.8% in test [6] (setting [18]); 6.5% in test [6] (setting [19]); 8.6% in test [6] (setting [20]); 9.0% in test [6] (setting [21]); 13.7% in test [6] (setting [22]); 2.2% in test [5] (setting [23]). For the same compound, the “Net Apoptosis” value in test [5] (setting [24]) worked out at 3.6%; in test [5] (setting [25]) it was 4.5%. Further, the “Net avg A405 nm” value stood at 0.294 in test [6] (setting [18]); 0.314 in test [6] (setting [19]); 0.338 in test [6] (setting [20]); 0.344 in test [6] (setting [21]); 0.399 in test [6] (setting [22]); 0.041 in test [5] (setting [23]). The results for the “Net avg A405 nm” value in test [5] (setting [24]) and in test [5] (setting [25]) were 0.063 and 0.077, respectively. In addition, the “Apoptosis (FIG. 6)” value in test [5] is “little effect”. Also, the EC50 in test [4] (setting [10]) turned out to be 14.5 µM; in test [4] (setting [15]), 17.2 µM; in test [4] (setting [11]), 52.9 µM; in test [4] (setting [16]) it was 44.3 µM; in test [4] (Homo sapiens, HN5, 24 h; drug alone (Table 1); concentration giving 50% effect; read-out: Dm), 186 µM; in test [4] (setting [17]) it was 123 µM.

Usually IC50 stands for the concentration that inhibits the measured activity by half. Low readings indicate higher potency, high ones lower potency.
